Experimental data: patent publication US20060057673A1, “Epitope analogs” (priority 2004, published 2006)
Where a SMILES comes first, the peptide text is derived from it. [ ]: non-standard residue; d: D form. Cha = N[C@@H](CC1CCCCC1)C(=O)O

What was measured:
HLA-A*0201 [1] = target: T1, HLA-A*0201 (Homo sapiens, UniProt P04439, D140Y/D185E/D98H/E176V/E277Q/G131W/G231S/I119V/I121R/I166T/I218V/L300P/L318F/N151K/N90K/P208A/P217A/Q86G/Q94H/R138H/R169H/T345S); test: iTopia binding assay (% binding); details: % binding compared to positive control melan-A26-35 A27L
Excerpt: Avidin-coated microtiter plates containing class I monomer loaded with a so-called placeholder peptide were used to evaluate peptide binding, affinity and off-rate. The monomer-coated plates were supplied as part of the iTopia Epitope Discovery System Kit (Beckman Ciulter, Inc., San Diego, Calif., USA). Assay buffers, anti-MHC-FITC mAb and beta2-microglobulin and control peptides were also supplied with the kits.
This assay measures the ability of individual peptides to bind HLA molecules under standardized optimal binding conditions. Monomer-coated plates were first stripped, releasing the placeholder peptide and leaving only the MHC heavy chain bound to the plate. Test peptides were then introduced under optimal folding conditions, along with the anti-MRC-FITC mAb. Plates were incubated for 18hrs at 21° C. The anti-MHC-FITC mAb binds preferentially to a refolded MHC complex. Therefore, the fluorescence intensity resulted from each peptide was related to the peptide's ability to form complex with MHC molecule. Each peptide's binding was evaluated relative to the positive control peptide provided in the kit, and the results were expressed ‘% binding’.

[2] = test system: target cells loaded with native PRAME425-433 peptide; test: In vivo cytotoxicity against native PRAME peptide coated splenocytes (CFSE); set-up: species or system HHD transgenic mice; details: plasmid prime, peptide boost
HLA-A*0201 [3] = target: T1, HLA-A*0201; test: Peptide binding using T2 cells; set-up: endogenous in cells; host or cells: T2 cells; details: T2 cells pulsed overnight at 37° C.; peptide concentration giving 50% of saturation signal; N/B printed, not defined

Molecule: Phe P1 analog: PRAME425-433 (SLLQHLIGL) analog, Phe for the Ser at the P1 position (FLLQHLIGL)
- % binding relative to native PRAME425-433 (HLA-A*0201 [1]): exceeded that range on the high side
- In vivo cytotoxicity against native PRAME epitope [2]: capable of expanding the immunity against the native epitope

Molecule: CC[C@H](C)[C@H](NC(=O)[C@H](CCCCN)NC(=O)[C@H](CCC(=O)O)NC(=O)[C@H](CO)NC(=O)[C@H](Cc1cccc2ccccc12)NC(=O)[C@@H](N)CCCCN)C(=O)N[C@@H](Cc1ccccc1)C(=O)N[C@@H](Cc1ccc(O)cc1)C(=O)N[C@H](C(=O)O)C(C)C [SSX2 41-49 (A42(Nal-1)), KNal-1SEKIFYV]
- Half-maximal Binding (mM) (HLA-A*0201 [3]): N/B

Molecule: CC[C@H](C)[C@H](NC(=O)[C@H](CCCCN)NC(=O)[C@H](CCC(=O)O)NC(=O)[C@H](CO)NC(=O)[C@H](C)NC(=O)[C@@H](N)CC1CCCCC1)C(=O)N[C@@H](Cc1ccccc1)C(=O)N[C@@H](Cc1ccc(O)cc1)C(=O)N[C@H](C(=O)O)C(C)C [SSX2 41-49 (K41(Cha))] (H-[Cha]ASEKIFYV-OH)
- Half-maximal Binding (mM) (HLA-A*0201 [3]): N/B
